The text below walks through data of US9079866B2, “Flap modulators” (JANSSEN PHARMACEUTICA NV, priority 2013, dated 2015).

One experiment concerns the target human FLAP (Homo sapiens (Human), UniProt P20292). Description: FLAP binding assay (HTRF format). Put shortly: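 Samples were run in duplicate on each of two plates and the plate results averaged. Read-out is the HTRF signal ratio.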
Experiment [1] has as its system leukotriene pathway in human whole blood (LTB4 levels). Description: Human whole blood assay (A23187-stimulated LTB4). It is filed as cell-based. As to conditions: Homo sapiens, human whole blood diluted 1:1 in RPMI, A23187-stimulated LTB4; read-out: LTB4 IC50 1:1. The procedure, abridged:
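Heparinised human whole blood diluted 1:1 in RPMI, pre-incubated 15 min at 37° Celsius with compound, then stimulated with A23187 (7 μg/mL) for 30 min at 37° Celsius. Plasma LTB4 measured by immunoassay kit; IC50 from 4-parameter fit; single replicate per plate, at least one healthy donor.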

[2] abbreviates: human FLAP wild type, HTRF format, average of two plates, duplicates.
Where [3] appears, read: read-out: FLAP Binding wild type HTRF Ki.

Molecules are shown by their SMILES. pIC50, pKi: −log10 of the molar value. Where a name gives a salt, the structure may show the parent alone. Read-outs that look alike come from different tables or passages of the source.

human FLAP, sequence (P20292 whole entry): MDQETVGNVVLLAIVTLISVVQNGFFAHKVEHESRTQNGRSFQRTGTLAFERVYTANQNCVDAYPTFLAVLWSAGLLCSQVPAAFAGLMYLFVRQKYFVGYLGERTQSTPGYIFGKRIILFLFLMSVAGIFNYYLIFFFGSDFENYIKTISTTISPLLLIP

Usually pKi stands for −log10 of the Ki, conventionally taken in molar units. In general, pIC50 refers to −log10 of the IC50, conventionally taken in molar units. At human FLAP (setting [2]), `CN1CCN(S(=O)(=O)c2cc(C(F)(F)F)ccc2-c2ccc(-c3cnc(N)cn3)c(F)c2)CC1` [Example 212, 5-{3-Fluoro-2′-[(4-methylpiperazin-1-yl)sulfonyl]-4′-(trifluoromethyl)biphenyl-4-yl}pyrazin-2-amine] gave a negative-log Ki (pKi) of 9.00. Further, the negative logarithm of the IC50 (pIC50) in experiment [1] was 8.30.

In the case of `Nc1cnc(-c2ccc(-c3ccccc3Sc3ncccn3)cc2F)cn1` [Example 213, 5-[3-Fluoro-2′-(pyrimidin-2-ylsulfanyl)biphenyl-4-yl]pyrazin-2-amine hydrochloride], the pKi on human FLAP (setting [2]) is 8.70. Further, in experiment [1], the negative logarithm of the IC50 (pIC50) was 7.60.

Consider `Nc1ncc(-c2ccc(-c3ccccc3Sc3ccncn3)cc2F)cn1` [Example 214, 5-[3-Fluoro-2′-(pyrimidin-4-ylsulfanyl)biphenyl-4-yl]pyrimidin-2-amine formate salt], for which the pKi at human FLAP (setting [2]) is 7.92. In addition, in experiment [1], the pIC50 was 6.86.

`Nc1cnc(-c2ccc(-c3ccccc3Sc3cc(N)ncn3)cc2F)cn1` [Example 215, 6-{[4′-(5-Aminopyrazin-2-yl)-3′-fluorobiphenyl-2-yl]sulfanyl}pyrimidin-4-amine hydrochloride]: the pKi on human FLAP (setting [2]) was 8.70. For the same compound, the pIC50 in experiment [1] is 7.92.

On to `Nc1cnc(-c2ccc(-c3ccccc3Sc3nccc(N)n3)cc2F)cn1` [Example 216, 2-{[4′-(5-Aminopyrazin-2-yl)-3′-fluorobiphenyl-2-yl]sulfanyl}pyrimidin-4-amine hydrochloride], for which, at human FLAP (setting [3]), the pKi was 8.70. Further, the pIC50 in experiment [1] is 7.80.

As for `Nc1cnc(-c2ccc(-c3ccccc3Sc3ncncc3N)cc2F)cn1` [Example 217, 4-{[4′-(5-Aminopyrazin-2-yl)-3′-fluorobiphenyl-2-yl]sulfanyl}pyrimidin-5-amine hydrochloride], the pKi on human FLAP (setting [2]) was 9.00. The pIC50 in experiment [1] was 8.05.

As to `Nc1cnc(-c2ccc(-c3ccccc3Sc3cnccn3)cc2F)cn1` [Example 218, 5-[3-Fluoro-2′-(pyrazin-2-ylsulfanyl)biphenyl-4-yl]pyrazin-2-amine hydrochloride], at human FLAP (setting [3]), the pKi is 8.52. Further, the pIC50 in experiment [1] was 7.54.

As to `Nc1cnc(Sc2ccccc2-c2ccc(-c3cnc(N)cn3)c(F)c2)nc1` [Example 219, 2-{[4′-(5-Aminopyrazin-2-yl)-3′-fluorobiphenyl-2-yl]sulfanyl}pyrimidin-5-amine hydrochloride], the pKi at human FLAP (setting [2]) was 8.30. In addition, the pIC50 in experiment [1] is 7.51.

`CNS(=O)(=O)Cc1ccccc1-c1ccc(-c2cnc(N)cn2)c(F)c1` [Example 220, 1-[4′-(5-Aminopyrazin-2-yl)-3′-fluorobiphenyl-2-yl]-N-methylmethanesulfonamide formic acid salt] gave a pKi at human FLAP (setting [2]) of 6.69. Also, the pIC50 in experiment [1] was 6.66.

As to `Nc1cnc(-c2ccc(-c3ccccc3CS(=O)(=O)NCCO)cc2F)cn1` [Example 221, 1-[4′-(5-Aminopyrazin-2-yl)-3′-fluorobiphenyl-2-yl]-N-(2-hydroxyethyl)methanesulfonamide formic acid salt], the pKi on human FLAP (setting [2]) is 6.52. Also, the pIC50 in experiment [1] was 6.07.

On human FLAP (setting [2]), `Nc1cnc(-c2ccc(-c3ccccc3CS(=O)(=O)N3CC(O)C3)cc2F)cn1` [Example 222, 1-({[4′-(5-Aminopyrazin-2-yl)-3′-fluorobiphenyl-2-yl]methyl}sulfonyl)azetidin-3-ol formic acid salt] gave a pKi of 6.93. In experiment [1], the negative-log IC50 (pIC50) is 6.20.

At human FLAP (setting [2]), `C[C@@H](CO)NS(=O)(=O)Cc1ccccc1-c1ccc(-c2cnc(N)cn2)c(F)c1` [Example 224, (S)-1-(4′-(5-Aminopyrazin-2-yl)-3′-fluoro-[1,1′-biphenyl]-2-yl)-N-(1-hydroxypropan-2-yl)-methanesulfonamide] gave a pKi of 6.53. Further, the pIC50 in experiment [1] was 6.29.

Take `Nc1cnc(-c2ccc(-c3ccccc3CS(=O)(=O)N[C@H]3CC[C@H](O)CC3)cc2F)cn1` [Example 226, 1-[4′-(5-Aminopyrazin-2-yl)-3′-fluorobiphenyl-2-yl]-N-(trans-4-hydroxycyclohexyl)-methanesulfonamide formic acid salt]: the pKi at human FLAP (setting [3]) was 6.68. Further, the negative-log IC50 (pIC50) in experiment [1] is 6.48.

The compound `Nc1cnc(-c2ccc(-c3ccccc3CS(N)(=O)=O)cc2F)cn1` [Example 230, 1-[4′-(5-Aminopyrazin-2-yl)-3′-fluorobiphenyl-2-yl]methanesulfonamide hydrochloride] showed a pKi on human FLAP (setting [2]) of 5.92. The negative logarithm of the IC50 (pIC50) in experiment [1] was 5.30.

Take `CCNS(=O)(=O)Cc1ccccc1-c1ccc(-c2cnc(N)cn2)c(F)c1` [Example 231, 1-[4′-(5-Aminopyrazin-2-yl)-3′-fluorobiphenyl-2-yl]-N-ethylmethanesulfonamide formate salt]: the pKi at human FLAP (setting [3]) was 6.87. Besides, the pIC50 in experiment [1] was 6.25.

For `CCSCc1ccccc1-c1ccc(-c2cnc(N)cn2)c(F)c1` [Example 234, 5-{2′-[(Ethylsulfanyl)methyl]-3-fluorobiphenyl-4-yl}pyrazin-2-amine formic acid salt], the negative-log Ki (pKi) at human FLAP (setting [2]) is 7.60. Also, the pIC50 in experiment [1] was 6.62.

In the case of `CSCc1ccccc1-c1ccc(-c2cnc(N)cn2)c(F)c1` [Example 235, 5-{3-Fluoro-2′-[(methylsulfanyl)methyl]biphenyl-4-yl}pyrazin-2-amine hydrochloride], the pKi on human FLAP (setting [2]) is 7.44. The pIC50 in experiment [1] was 6.55.

For `CC(C)SCc1ccccc1-c1ccc(-c2cnc(N)cn2)c(F)c1` [Example 236, 5-(3-Fluoro-2′-{[(1-methylethyl)sulfanyl]methyl}biphenyl-4-yl)pyrazin-2-amine hydrochloride], the pKi on human FLAP (setting [2]) was 7.24. Moreover, the pIC50 in experiment [1] was 6.35.

At human FLAP (setting [2]), `Nc1cnc(-c2ccc(-c3ccccc3CSc3nccc(N)n3)cc2F)cn1` [Example 237, 2-(((4′-(5-Aminopyrazin-2-yl)-3′-fluoro-[1,1′-biphenyl]-2-yl)methyl)thio)pyrimidin-4-amine hydrochloride] showed a pKi of 8.10. The pIC50 in experiment [1] was 6.87.

Regarding `Nc1cnc(-c2ccc(-c3ccccc3CSc3cc(N)ncn3)cc2F)cn1` [Example 238, 6-(((4′-(5-Aminopyrazin-2-yl)-3′-fluoro-[1,1′-biphenyl]-2-yl)methyl)thio)pyrimidin-4-amine hydrochloride], the pKi on human FLAP (setting [2]) is 8.30. For the same compound, the pIC50 in experiment [1] is 7.42.

As to `Nc1cnc(-c2ccc(-c3ccccc3CSc3ccc(N)nn3)cc2F)cn1` [Example 240, 6-(((4′-(5-Aminopyrazin-2-yl)-3′-fluoro-[1,1′-biphenyl]-2-yl)methyl)thio)pyridazin-3-amine hydrochloride], the pKi at human FLAP (setting [2]) was 8.70. In addition, in experiment [1], the pIC50 is 7.68.

Compound `Nc1cnc(-c2ccc(-c3ccccc3S(=O)(=O)C3CCS(=O)(=O)CC3)cc2F)cn1` [Example 241, 5-{2′-[(1,1-Dioxidotetrahydro-2H-thiopyran-4-yl)sulfonyl]-3-fluorobiphenyl-4-yl}pyrazin-2-amine] showed a pKi at human FLAP (setting [2]) of 7.82. Moreover, the negative logarithm of the IC50 (pIC50) in experiment [1] is 7.21.

Compound `Nc1cnc(-c2ccc(-c3ccccc3Sc3ccnc(N)n3)cc2F)cn1` [Example 242, 4-{[4′-(5-Aminopyrazin-2-yl)-3′-fluorobiphenyl-2-yl]sulfanyl}pyrimidin-2-amine hydrochloride] gave a pKi at human FLAP (setting [2]) of 9.00. Further, the pIC50 in experiment [1] was 8.40.
